# Source: paper PMC9000415, “Discovery of Novel Epoxyketone Peptides as Lipase Inhibitors” (Molecules, 2022)
# Assays:
# [1] = biological target: T1, porcine PL (pancreatic lipase) (Sus scrofa, UniProt P00591); assay: GC-FID based anti-lipase assay (phenyl acetate hydrolysis); assay type: biochemical; details: for IC50: porcine pancreatic lipase, phenyl acetate substrate, GC-FID, read-out: IC50 (nM) against PL
# T1 construct: Lipase from porcine pancreas, Type II; purchased Sigma Aldrich L3126; host or cells: porcine pancreas (tissue-derived)
# T1 sequence (P00591 1-450): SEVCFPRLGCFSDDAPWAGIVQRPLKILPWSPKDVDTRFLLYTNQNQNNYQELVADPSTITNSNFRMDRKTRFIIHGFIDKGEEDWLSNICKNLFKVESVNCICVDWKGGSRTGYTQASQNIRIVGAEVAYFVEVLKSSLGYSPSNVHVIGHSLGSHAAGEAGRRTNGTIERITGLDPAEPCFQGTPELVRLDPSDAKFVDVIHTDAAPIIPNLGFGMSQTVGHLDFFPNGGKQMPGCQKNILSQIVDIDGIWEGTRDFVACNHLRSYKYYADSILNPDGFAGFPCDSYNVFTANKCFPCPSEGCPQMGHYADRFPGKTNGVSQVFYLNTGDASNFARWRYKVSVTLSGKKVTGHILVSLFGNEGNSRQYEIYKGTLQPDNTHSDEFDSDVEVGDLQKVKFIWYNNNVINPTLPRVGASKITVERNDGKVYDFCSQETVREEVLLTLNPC
# Procedure: All chemicals and solvents were purchased from commercial suppliers (Amman, Jordan) and used without further purification. Anhydrous solvents were distilled from sodium and benzophenone before use. NMR (The University of Jordan, Amman, Jordan) spectra were recorded on a Varian 500 MHz spectrometer (500 and 125 MHz for the ^1H and ^13C nuclei, respectively) using CDCl3 as solvents and spectra were referenced to residual solvent as internal standard (for CDCl3 δH 7.26 and δC 77.1). LC-HRMS data for analysis of compounds 3−13 were obtained on an Agilent 6239 HR-ESI-TOFMS (UCSD, San Diego, CA, USA) equipped with a Phenomenex Luna 5 µm C18 100 Å column (4.6 × 250 mm). LCMS data for purity analysis of the synthesized compounds 3−13 were obtained with a Thermo Finnigan Surveyor Autosampler-Plus/LC-PumpPlus/PDA-Plus system and a Thermo Finnigan LCQ Advantage Max mass spectrometer (monitoring m/z 150−2000 in positive ion mode) using a linear gradient of 30–100% H2O/acetonitrile over 30 min; flow rate of 0.9 mL/min (UCSD, San Diego, CA, USA). Semipreparative HPLC (UCSD, San Diego, CA, USA) purification was carried out using a Waters 515 with a Waters 996 photodiode array detector using Empower Pro software. […] Chemical shifts (δ) are given in parts per million (ppm) and coupling constants (J) are reported in Hertz (Hz). The compounds are named in accordance with IUPAC rules as applied by ChemBioDraw Ultra (version 20.1.1) (software provided by the University of Jordan, Amman, Jordan). GCMS analysis: Thermo Scientific Focus gas chromatography coupled to a flame ionization […] was used to analyze the samples. A total of 1.0 µL sample was injected into the Thermo Scientific Focus GC-FID equipped with a split/spitless injector (split ratio, 2.5). The column was HP-5 (DP-5) capillary column stationary phase. Helium was the carrier gas at a flow rate of 1.0 mL/min. Linear temperature program was applied from 100 to 250 °C at 5 °C/min. The specific run time of analysis for each sample was […]. The temperatures of the injector base and the detector were maintained at 250 °C, 250 °C respectively. Lipase from porcine pancreas, Type II, 100–650 units/mg protein (product# L3126) was purchased from Sigma Aldrich (Amman, Jordan).
# All tested compounds were dissolved in DMSO to prepare a stock solution (of each compound) having a known concentration. A proper aliquot of each tasted compound was obtained by further dilution of the stock. Samples were prepared and analyzed for their phenyl acetate content by adopting an internal standard procedure. the sample analysis performed using GC-FID. For each sample, 50 µL of 2 mg/mL pancreatic lipase, phenyl acetate (1 mM), and 50 µL of each candidate inhibitor. […] Subsequently, the samples were left for overall time of 20 min vortex and centrifuged for approximately 3 min. For extraction of the phenyl acetate remain in the aqueous layer the nonpolar solvent chloroform containing the internal standard added, then vortex and centrifuged and the chloroform removed to another tube for the GC-FID analysis.
# The linearity, RSD, LOD, and LOQ were evaluated for the method of analysis. […] The LOD and LOQ both was measured using the signal-to-noise method. The ratio of the analyte signal to the peak-to-peak noise signal around it was measured of (3:1) which is generally accepted signal-to-noise ratio (S/N) for the LOD estimation.
# [2] = system: HepG2 hepatoma cell line; assay: Cytotoxicity, MTT assay, HepG2; assay type: cell-based; details: Homo sapiens, 72 h exposure, read-out: HepG2 Cells IC50
# Procedure: (§1) All the cell line that were used in this study are (CCD-1064SK) the human normal skin fibroblast and HepG2 hepatoma cell line. The CCD-1064SK and HepG2 cell line was purchased from American Type Culture Collection (ATCC, Manassas, VA, USA). Cells were cultured in Iscove’s medium as recommended from ATCC. Media was supplement with 10% heated fetal bovine serum, 1% of 2 Mm L-glutamine, and (100 IU/mL) penicillin/(100 ug/mL) streptomycin. According to the cells growth profile, cells were seeded with a density of 10 × 10^4 cell/well. Cell viability was determined by trypan blue exclusion using a hemocytometer. For the cytotoxicity assay, cells were washed with phosphate buffer saline (PBS). PBS was decanted and cells detached with 0.025% trypsin-EDTA (EuroClone). Media was added to a volume of 10 mL. The cell suspension was centrifuged at 1000 rpm for 10 min and the pellet was resuspended in 10 mL medium to make a single cell suspension. Viability of the cells was determined by trypan blue exclusion, and it exceeded 90% as counted in a hemocytometer. The cell suspension was diluted afterwards to give the optimal seeding density and 100 uL of the cell suspension was plated in a 96 well plate. Cells were cultured at 37 °C in a humidified atmosphere of 5% CO2. After 24 h the cells were treated with different concentrations of tested compounds, (each compound was initially dissolved in DMSO). Initially, 100 and 50 ug/mL of each extract were tested. The active compounds were those which gave less than 50% survival at exposure time 72 h. The final dilution for all prepared concentrations used for treating the cells contained not more than 0.01% of the initial solvent (DMSO), this concentration being used in the solvent control wells. At the end of the exposure time, cell growth was analyzed using the MTT assay. MTT assay: After 72 h of incubation, 15 µL of MTT stock solution (Promega) (5 mg/mL in sterile phosphate-buffered saline, pH 7.4) was added to each well. After the cells were incubated for 3 h in the presence of MTT, 100 µL of solubilizing stop solution was added to each well to solubilize the dark violet formazan crystals. The optical densities at 570 nm were then measured using a microplate reader. The results were expressed as a percentage of cell viability with respect to a control corresponding to untreated cells.
# [3] = system: CCD-1064Sk fibroblast cell line; assay: Cytotoxicity, MTT assay, fibroblasts; assay type: cell-based; details: Homo sapiens, 72 h exposure
# Procedure: as §1
# [4] = system: dietary fat absorption; details: therapeutic dose; cited from earlier work
SMILES,IC50 [1] [nM],inhibition of PL at the highest concentration tested ([1]; 10 µM),IC50 [2] [nM],IC50 [3] [nM],inhibition of dietary fat absorption [4]
"CC(C)C[C@H](NC(=O)OC(C)(C)C)C(=O)[C@@]1(C)CO1 [Analogue 8, tert-butyl ((S)-4-methyl-1-((R)-2-methyloxiran-2-yl)-1-oxopentan-2-yl)carbamate]",120 ± 15.2,–,> 15000,> 15000,–
"C=C(C)C(=O)[C@H](Cc1ccc(F)cc1F)NC(=O)OC(C)(C)C [Analogue 13, tert-butyl (S)-(1-(2,4-difluorophenyl)-4-methyl-3-oxopent-4-en-2-yl)carbamate]",> 10000,did not inhibit,> 15000,> 15000,–
"CC(C)(C)OC(=O)N[C@@H](Cc1ccc(F)cc1)C(=O)[C@@]1(C)CO1 [Analogue 6, tert-butyl ((S)-3-(4-fluorophenyl)-1-((R)-2-methyloxiran-2-yl)-1-oxopropan-2-yl)carbamate]",46.4 ± 3.7,–,> 15000,> 15000,–
"CC(C)(C)OC(=O)N[C@@H](Cc1ccccc1)C(=O)[C@@]1(C)CO1 [Analogue 7, tert-butyl ((S)-1-((R)-2-methyloxiran-2-yl)-1-oxo-3-phenylpropan-2-yl)carbamate]",49.1 ± 11.4,–,> 15000,> 15000,–
C[C@]1(C(=O)[C@@H](N)Cc2ccccc2)CO1 [Analogue 10],73.1 ± 9.8,–,> 15000,> 15000,–
"CCCCCCCCCCC[C@@H](C[C@@H]1OC(=O)[C@H]1CCCCCC)OC(=O)[C@H](CC(C)C)NC=O [orlistat (1), orlistat]",–,–,–,–,approximately 30%

# Continued, in another order:
IC50 [1] [nM],inhibition of PL at the highest concentration tested ([1]; 10 µM),SMILES,IC50 [2] [nM],IC50 [3] [nM],inhibition of dietary fat absorption [4]
9.3 ± 2.5,–,"CCCCCCCCCCCC(=O)N[C@@H](CCCC)C(=O)N[C@@H](Cc1ccc(F)cc1F)C(=O)[C@@]1(C)CO1 [Analogue 4, N-((S)-1-(((S)-3-(2,4-difluorophenyl)-1-((R)-2-methyloxiran-2-yl)-1-oxopropan-2-yl)amino)-1-oxohexan-2-yl)dodecanamide]",2320,> 15000,–
29 ± 4.2,–,"CC(C)(C)OC(=O)N[C@@H](Cc1ccc(F)cc1F)C(=O)[C@]1(C)CO1 [Analogue 11, tert-butyl ((S)-3-(2,4-difluorophenyl)-1-((S)-2-methyloxiran-2-yl)-1-oxopropan-2-yl)carbamate]",> 15000,> 15000,–
25 ± 1.1,–,"CCCCCC(=O)N[C@H](C(=O)N[C@@H](CCS(C)(=O)=O)C(=O)N[C@@H](CC(C)C)C(=O)[C@@]1(C)CO1)C(C)C [carmaphycin B (2), carmaphycin B, reference compound]",–,–,–
29.4 ± 4.8,–,"CC(C)(C)OC(=O)N[C@@H](Cc1ccc(F)cc1F)C(=O)[C@@]1(C)CO1 [Analogue 5, tert-butyl ((S)-3-(2,4-difluorophenyl)-1-((R)-2-methyloxiran-2-yl)-1-oxopropan-2-yl)carbamate]",> 15000,> 15000,–
29.3 ± 2.4,–,"CCCCCCCCCCCC(=O)N[C@@H](Cc1ccc(F)cc1F)C(=O)[C@@]1(C)CO1 [Analogue 3, N-((S)-3-(2,4-difluorophenyl)-1-((R)-2-methyloxiran-2-yl)-1-oxopropan-2-yl)dodecanamide]",2600,> 15000,–
41.5 ± 7.1,–,"C[C@]1(C(=O)[C@@H](N)Cc2ccc(F)cc2F)CO1 [Analogue 9, (S)-2-amino-3-(2,4-difluorophenyl)-1-((R)-2-methyloxiran-2-yl)propan-1-one]",> 15000,> 15000,–
